Measured values taken from US20120214830A1, “BIOLOGICAL MARKERS PREDICTIVE OF ANTI-CANCER RESPONSE TO INSULIN-LIKE GROWTH FACTOR-1 RECEPTOR KINASE INHIBITORS IN HEPATOCELLULAR CARCINOMA” (OSI Pharmaceuticals, LLC, priority 2011, published 2012).

Key:
Huh-6 = assay: Cell Titer-Glo proliferation assay, 72 h; type: cell-based; settings: Homo sapiens, Huh-6 cells
Experimental: (§1) Cell lines: Twenty-one HCC cell lines were purchased from either ATCC (HepG2, Hep3B, PLC/PRF/5, SK-Hepl, SNU-182, SNU-387, SNU-398, SNU-423, SNU-449, SNU-475) or Health Science Research Resources Bank (Japan) (HUH-1, HUH-6, HUH-7, HLE, HLF, JHH-1, JHH-2, JHH-4, JHH-5, JHH-6, JHH-7). All the cell lines were maintained in media as described by the vendors. For growth inhibition assays, cells were plated and allowed to proliferate for 24 hours. After 24 hours, cells had reached approximately 15% confluency, at which time serial dilutions of OSI-906 were added and the cells grown for a further 72 hours. Cell viability was assayed using the Cell Titer-Glo reagent (Promega Corp., Madison, Wis.). Proliferation Assay. Proliferation was assayed using Cell Titer Glo assays (Promega) and was determined 72 hours following dosing with OSI-906. The basis of the assay is a luminescent quantitation of ATP present in a cell culture plate well. In essence, the greater the number of viable cells in the well, the greater the level of ATP present. The assay utilizes a substrate that binds ATP to produce a luminescent signal, which can be read on a luminometer. Unless otherwise noted, the manufacturer's instructions were followed exactly. Briefly, on Day 1, cells were plated in […] of 10% serum-containing growth media at a density of 4000 cells/well in a white polystyrene 96 well assay plate. On day 2, cells were treated with 15 μl of 10× concentration of the IGF-1R inhibitor (e.g. OSI-906) or DMSO alone for a final well volume of 150 μl. After 72 h incubation with the inhibitor, the cells were assayed. Results were calculated as a fraction of the DMSO controlled cells.

HLE = assay: Cell Titer-Glo proliferation assay, 72 h; type: cell-based; settings: Homo sapiens, HLE cells
Experimental: as §1

PLC/PRF/5 = assay: Cell Titer-Glo proliferation assay, 72 h; type: cell-based; settings: Homo sapiens, PLC/PRF/5 cells
Experimental: as §1

JHH-6 = assay: Cell Titer-Glo proliferation assay, 72 h; type: cell-based; settings: Homo sapiens, JHH-6 cells
Experimental: as §1

SNU-182 = assay: Cell Titer-Glo proliferation assay, 72 h; type: cell-based; settings: Homo sapiens, SNU-182 cells
Experimental: as §1

SNU-423 = assay: Cell Titer-Glo proliferation assay, 72 h; type: cell-based; settings: Homo sapiens, SNU-423 cells
Experimental: as §1

JHH-4 = assay: Cell Titer-Glo proliferation assay, 72 h; type: cell-based; settings: Homo sapiens, JHH-4 cells
Experimental: as §1

SNU-475 = assay: Cell Titer-Glo proliferation assay, 72 h; type: cell-based; settings: Homo sapiens, SNU-475 cells
Experimental: as §1

Hep G2 = assay: Cell Titer-Glo proliferation assay, 72 h; type: cell-based; settings: Homo sapiens, HepG2, Hep G2 cells
Experimental: as §1

SK Hep-1 = assay: Cell Titer-Glo proliferation assay, 72 h; type: cell-based; settings: Homo sapiens, SK-HEP1, SK Hep-1 cells
Experimental: as §1

Huh-7 = assay: Cell Titer-Glo proliferation assay, 72 h; type: cell-based; settings: Homo sapiens, Huh-7 cells
Experimental: as §1

SNU-449 = assay: Cell Titer-Glo proliferation assay, 72 h; type: cell-based; settings: Homo sapiens, SNU-449 cells
Experimental: as §1

JHH-5 = assay: Cell Titer-Glo proliferation assay, 72 h; type: cell-based; settings: Homo sapiens, JHH-5 cells
Experimental: as §1

SNU-387 = assay: Cell Titer-Glo proliferation assay, 72 h; type: cell-based; settings: Homo sapiens, SNU-387 cells
Experimental: as §1

SNU-398 = assay: Cell Titer-Glo proliferation assay, 72 h; type: cell-based; settings: Homo sapiens, SNU-398 cells
Experimental: as §1

Huh-1 = assay: Cell Titer-Glo proliferation assay, 72 h; type: cell-based; settings: Homo sapiens, Huh-1 cells
Experimental: as §1

JHH-2 = assay: Cell Titer-Glo proliferation assay, 72 h; type: cell-based; settings: Homo sapiens, JHH-2 cells
Experimental: as §1

[1] = tested on: HUH-1, JHH-5 and HepG2 cells; assay: Proliferation assay with OSI-906 after TGFβ treatment; type: cell-based, human; settings: cells grown with 10 ng/ml TGFβ for 10 days, HUH-1, JHH-5, HepG2
Experimental: Proliferation Assay. Proliferation was assayed using Cell Titer Glo assays (Promega) and was determined 72 hours following dosing with OSI-906. The basis of the assay is a luminescent quantitation of ATP present in a cell culture plate well. In essence, the greater the number of viable cells in the well, the greater the level of ATP present. The assay utilizes a substrate that binds ATP to produce a luminescent signal, which can be read on a luminometer. Unless otherwise noted, the manufacturer's instructions were followed exactly. Briefly, on Day 1, cells were plated in 120 μl of 10% serum-containing growth media at a density of 4000 cells/well in a white polystyrene 96 well assay plate. On day 2, cells were treated with 15 μl of 10× concentration of the IGF-1R inhibitor (e.g. OSI-906) or DMSO alone for a final well volume of 150 μl. After 72 h incubation with the inhibitor, the cells were assayed. Results were calculated as a fraction of the DMSO controlled cells.

C[C@]1(O)C[C@@H](c2nc(-c3ccc4ccc(-c5ccccc5)nc4c3)c3c(N)nccn32)C1 [OSI-906, cis-3-[8-amino-1-(2-phenyl-quinolin-7-yl)-imidazo[1,5-a]pyrazin-3-yl]-1-methyl-cyclobutanol]
inhibition at 5 µM (Huh-6; 5 μM OSI-906, 72 h): 41%
EC50 (Huh-6; 72 h OSI-906): 0.25 µM
inhibition at 5 µM (HLE; 5 μM OSI-906, 72 h): < 40%
EC50 (HLE; 72 h OSI-906): > 10 µM
inhibition at 5 µM (PLC/PRF/5; 5 μM OSI-906, 72 h): < 40%
EC50 (PLC/PRF/5; 72 h OSI-906): > 10 µM
inhibition at 5 µM (JHH-6; 5 μM OSI-906, 72 h): < 40%
EC50 (JHH-6; 72 h OSI-906): > 10 µM
inhibition at 5 µM (SNU-182; 5 μM OSI-906, 72 h): < 40%
EC50 (SNU-182; 72 h OSI-906): > 10 µM
inhibition at 5 µM (SNU-423; 5 μM OSI-906, 72 h): < 40%
EC50 (SNU-423; 72 h OSI-906): > 10 µM
inhibition at 5 µM (JHH-4; 5 μM OSI-906, 72 h): < 40%
EC50 (JHH-4; 72 h OSI-906): > 10 µM
inhibition at 5 µM (SNU-475; 5 μM OSI-906, 72 h): < 40%
EC50 (SNU-475; 72 h OSI-906): > 10 µM
inhibition at 5 µM (Hep G2; 5 μM OSI-906, 72 h): 77%
EC50 (Hep G2; 72 h OSI-906): 0.22 µM
inhibition at 5 µM (SK Hep-1; 5 μM OSI-906, 72 h): < 40%
EC50 (SK Hep-1; 72 h OSI-906): > 10 µM
inhibition at 5 µM (Huh-7; 5 μM OSI-906, 72 h): 70%
EC50 (Huh-7; 72 h OSI-906): 0.37 µM
inhibition at 5 µM (SNU-449; 5 μM OSI-906, 72 h): < 40%
EC50 (SNU-449; 72 h OSI-906): > 10 µM
inhibition at 5 µM (JHH-5; 5 μM OSI-906, 72 h): 80%
EC50 (JHH-5; 72 h OSI-906): 0.19 µM
inhibition at 5 µM (SNU-387; 5 μM OSI-906, 72 h): < 40%
EC50 (SNU-387; 72 h OSI-906): > 10 µM
inhibition at 5 µM (SNU-398; 5 μM OSI-906, 72 h): < 40%
EC50 (SNU-398; 72 h OSI-906): > 10 µM
inhibition at 5 µM (Huh-1; 5 μM OSI-906, 72 h): 74%
EC50 (Huh-1; 72 h OSI-906): 0.18 µM
inhibition at 5 µM (JHH-2; 5 μM OSI-906, 72 h): < 40%
EC50 (JHH-2; 72 h OSI-906): > 10 µM
HCC cell sensitivity to OSI-906 after TGFβ treatment [1]: decreased
